Test results as given in patent US9637470B2, “Treatment for substance use disorders and stress disorders” (Baylor College of Medicine, priority 2013, dated 2017).
Like-named read-outs stand apart in the source and are kept apart here.

Tests used:
[1] = molecular target: recombinant human serotonin transporter protein (SERT) (Homo sapiens, UniProt P31645); experiment: IC50 binding profile, competitive inhibition assay, SERT
Experimental: Amitifadine and DOV 102,677 are enantiomers and differ only in the stereochemistry of the cyclopropyl pyrrolidine carbon to which the dichlorophenyl group is bonded. In addition to the structural differences, the compounds differ greatly in their IC50 binding profiles at the three corresponding monoamine transporter proteins. The IC50 binding profiles were measured for each of the compounds in Table 5 by competitive inhibition assays using recombinant human serotonin transporter protein, recombinant human norepinephrine transporter protein, and recombinant human dopamine transporter protein Compounds were screened at a range of concentrations and were fit to a curve to determine IC50 values, the concentration at which 50% inhibition occurs.

serotonin transporter = molecular target: T1, serotonin transporter (Rattus norvegicus, UniProt P31652); experiment: Monoamine uptake into rat synaptosomes, serotonin; assay type: biochemical
T1 construct: from tissue; host or cells: rat synaptosomes

dopamine transporter = molecular target: T2, dopamine transporter (Rattus norvegicus, UniProt P23977); experiment: Monoamine uptake into rat synaptosomes, dopamine; assay type: biochemical
T2 construct: from tissue; host or cells: rat synaptosomes

[2] = test system: synaptic levels of serotonin, norepinephrine, and dopamine in rat prefrontal cortex; experiment: Synaptic monoamine levels in rat prefrontal cortex after oral treatment; assay type: in vivo; conditions: greater effects on serotonin and norepinephrine than dopamine
[3] = test system: alcohol preferring P rats; experiment: Binge alcohol / sucrose operant drinking in alcohol preferring P rats; assay type: in vivo, rat
Experimental: Animals were habituated to the gavage procedures by administering deionized water alone over a number of experimental sessions.
Animals were tested in 30 individual standard operant chambers (Coulbourn Instruments, Inc., Lehigh Valley, Pa.). The operant apparatus contained two levers, two dipper manipulanda, a cue light over each lever, and a house light. The dipper cup delivered either 10% (v/v) alcohol or 1% (w/v) sucrose reinforcers in a volume of 0.1 ml. To initiate excessive “binge” alcohol drinking, rats were adapted to a 12 h:12 h light/dark cycle which began at 4:30 pm (lights off) and lasted to 4:30 am (lights on). Rats were trained to orally self-administer EtOH for daily 30 min sessions under an FR1 schedule employing the sucrose fading technique. After a period of stabilization, the response requirement was then increased to an FR4 schedule. Responding was considered stable when responses were within ±20% of the average responses for five consecutive days, which took approximately 8 days. During the stabilization procedures, the animals were never deprived of food or fluid. Other cohorts of rats were given a 1% (w/v) concentration of sucrose and trained in an identical manner under the FR1, then FR4, schedule. […] Self-administration was assessed in 3×30 min FR4 operant sessions spaced 1 h apart during the dark cycle. […]

5-HT2B = 5-HT2B (Homo sapiens, UniProt P41595); experiment: Functional activity at 5-HT2B receptor
From the text: Binding at σ1 is not problematic, as SSRIs are known to have similar activities.

[4] = Metabolic stability in human liver microsomes; assay type: in vitro ADME
PK parameters in monkey = conditions: in vivo
CYP450 1A2 = CYP450 1A2 (Homo sapiens, UniProt P05177); experiment: CYP450 inhibition, 1A2; assay type: in vitro ADME
CYP450 2C8 = CYP450 2C8 (Homo sapiens, UniProt P10632); experiment: CYP450 inhibition, 2C8; assay type: in vitro ADME
CYP450 2C9 = CYP450 2C9 (Homo sapiens, UniProt P11712); experiment: CYP450 inhibition, 2C9; assay type: in vitro ADME
CYP450 2D6 = CYP450 2D6 (Homo sapiens, UniProt P10635); experiment: CYP450 inhibition, 2D6; assay type: in vitro ADME; conditions: at 10 uM
CYP 1A2 = experiment: CYP induction, 1A2; assay type: in vitro ADME
CYP 2B6 = experiment: CYP induction, 2B6; assay type: in vitro ADME
CYP 3A4 = experiment: CYP induction, 3A4; assay type: in vitro ADME
AMES = experiment: Genotoxicity testing, AMES
[5] = Chronic (13 week) toxicity testing in dogs; conditions: dog, in vivo, read-out: no adverse effects level (NOAEL)
rats [6] = experiment: Irwin test for neurotoxicity in rats; assay type: in vivo, rat; conditions: up to 90 mg/kg
rats [7] = experiment: Respiratory testing in rats; assay type: in vivo, rat; conditions: up to 90 mg/kg
[8] = Teratogenicity study (segment II) in rats; conditions: rat, in vivo
[9] = ADM&E studies: stability and protein binding; assay type: in vitro ADME
[10] = Multiple ascending dose study in healthy volunteers; assay type: in vivo, human; conditions: human, plasma, daily doses up to 11 days, for most doses, read-out: elimination half-life during chronic treatment (converted)
Experimental: (§1) This double-blind, placebo controlled study enrolled 50 participants divided into 10 per dosing group. In each group of 10, 7 received active medication and 3 received placebo to maintain the blind. The doses tested were 25 mg BID, 75 mg QD, 50 mg BID, 75 mg BID, and 100 mg BID.

healthy volunteers = experiment: as above; assay type: in vivo, human; conditions: multiple dose
Experimental: as §1

[11] = Human pharmacokinetic studies; conditions: in vivo, read-out: elimination half-life (converted)
Experimental: These studies will use double-blind, placebo-controlled experimental designs. Human pharmacokinetic studies indicate that EC2 has an elimination half-life of approximately 7 hours, allowing twice daily dosing.

micronucleus = experiment: Genotoxicity testing, micronucleus
humans = experiment: Positive subjective effects in humans (abuse potential)
mouse lymphoma = experiment: Genotoxicity testing, mouse lymphoma chromosome aberration

5-HT2B, sequence (P41595 whole entry, species assumed): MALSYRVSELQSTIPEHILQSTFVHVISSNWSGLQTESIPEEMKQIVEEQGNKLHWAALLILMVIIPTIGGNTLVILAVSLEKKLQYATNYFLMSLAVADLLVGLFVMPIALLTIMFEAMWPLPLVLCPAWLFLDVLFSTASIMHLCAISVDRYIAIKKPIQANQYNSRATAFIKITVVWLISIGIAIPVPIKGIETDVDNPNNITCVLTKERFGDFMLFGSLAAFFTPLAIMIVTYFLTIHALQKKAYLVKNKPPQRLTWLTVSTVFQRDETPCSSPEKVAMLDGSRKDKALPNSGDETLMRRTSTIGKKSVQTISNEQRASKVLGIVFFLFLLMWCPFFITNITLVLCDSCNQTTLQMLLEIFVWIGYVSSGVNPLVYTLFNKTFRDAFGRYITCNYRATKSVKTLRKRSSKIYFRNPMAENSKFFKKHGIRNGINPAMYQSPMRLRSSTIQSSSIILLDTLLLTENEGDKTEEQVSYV
CYP450 2C8, sequence (P10632 whole entry): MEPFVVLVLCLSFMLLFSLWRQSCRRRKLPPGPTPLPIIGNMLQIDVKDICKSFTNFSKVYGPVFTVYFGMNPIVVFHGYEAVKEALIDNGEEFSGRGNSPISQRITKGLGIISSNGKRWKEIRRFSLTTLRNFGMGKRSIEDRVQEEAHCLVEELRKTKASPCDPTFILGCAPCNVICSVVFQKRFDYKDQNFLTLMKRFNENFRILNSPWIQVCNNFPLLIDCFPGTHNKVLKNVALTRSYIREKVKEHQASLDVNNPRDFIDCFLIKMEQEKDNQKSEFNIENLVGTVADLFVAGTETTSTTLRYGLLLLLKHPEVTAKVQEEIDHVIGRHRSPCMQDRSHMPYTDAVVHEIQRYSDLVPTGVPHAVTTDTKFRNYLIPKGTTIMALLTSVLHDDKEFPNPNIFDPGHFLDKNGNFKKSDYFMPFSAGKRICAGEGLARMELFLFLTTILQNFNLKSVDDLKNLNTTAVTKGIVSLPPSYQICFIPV
T2 sequence (P23977 whole entry): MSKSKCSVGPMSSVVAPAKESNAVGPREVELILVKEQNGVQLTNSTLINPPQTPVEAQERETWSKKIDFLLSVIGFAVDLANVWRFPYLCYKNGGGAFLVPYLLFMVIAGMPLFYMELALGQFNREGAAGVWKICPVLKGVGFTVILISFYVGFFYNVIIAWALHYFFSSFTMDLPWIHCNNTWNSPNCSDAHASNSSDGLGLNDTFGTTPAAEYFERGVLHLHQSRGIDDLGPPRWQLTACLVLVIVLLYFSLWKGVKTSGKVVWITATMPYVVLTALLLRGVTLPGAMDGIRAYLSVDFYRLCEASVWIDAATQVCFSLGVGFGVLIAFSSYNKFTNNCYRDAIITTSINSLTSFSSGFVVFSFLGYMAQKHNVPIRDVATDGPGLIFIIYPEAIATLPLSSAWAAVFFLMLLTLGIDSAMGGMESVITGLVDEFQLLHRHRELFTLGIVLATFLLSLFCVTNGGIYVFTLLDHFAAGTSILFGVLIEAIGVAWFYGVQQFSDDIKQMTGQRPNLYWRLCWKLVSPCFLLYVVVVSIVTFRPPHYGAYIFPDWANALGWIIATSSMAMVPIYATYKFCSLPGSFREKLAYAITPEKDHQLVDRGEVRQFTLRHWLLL
CYP450 2D6, sequence (P10635 whole entry): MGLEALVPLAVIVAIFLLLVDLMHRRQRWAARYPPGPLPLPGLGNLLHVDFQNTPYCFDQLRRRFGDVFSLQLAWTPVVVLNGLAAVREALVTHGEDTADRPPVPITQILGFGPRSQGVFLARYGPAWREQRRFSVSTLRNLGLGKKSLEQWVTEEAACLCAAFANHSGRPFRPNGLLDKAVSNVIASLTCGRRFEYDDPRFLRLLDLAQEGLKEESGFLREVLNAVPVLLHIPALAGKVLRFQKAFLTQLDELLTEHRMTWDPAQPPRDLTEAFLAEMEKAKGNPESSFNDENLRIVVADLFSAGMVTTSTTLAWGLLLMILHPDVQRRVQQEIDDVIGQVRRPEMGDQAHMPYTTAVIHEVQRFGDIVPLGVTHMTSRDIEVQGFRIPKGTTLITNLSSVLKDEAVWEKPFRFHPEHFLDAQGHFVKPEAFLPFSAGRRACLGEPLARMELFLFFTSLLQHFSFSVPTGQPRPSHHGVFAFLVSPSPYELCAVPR
recombinant human serotonin transporter protein (SERT), sequence (P31645 whole entry): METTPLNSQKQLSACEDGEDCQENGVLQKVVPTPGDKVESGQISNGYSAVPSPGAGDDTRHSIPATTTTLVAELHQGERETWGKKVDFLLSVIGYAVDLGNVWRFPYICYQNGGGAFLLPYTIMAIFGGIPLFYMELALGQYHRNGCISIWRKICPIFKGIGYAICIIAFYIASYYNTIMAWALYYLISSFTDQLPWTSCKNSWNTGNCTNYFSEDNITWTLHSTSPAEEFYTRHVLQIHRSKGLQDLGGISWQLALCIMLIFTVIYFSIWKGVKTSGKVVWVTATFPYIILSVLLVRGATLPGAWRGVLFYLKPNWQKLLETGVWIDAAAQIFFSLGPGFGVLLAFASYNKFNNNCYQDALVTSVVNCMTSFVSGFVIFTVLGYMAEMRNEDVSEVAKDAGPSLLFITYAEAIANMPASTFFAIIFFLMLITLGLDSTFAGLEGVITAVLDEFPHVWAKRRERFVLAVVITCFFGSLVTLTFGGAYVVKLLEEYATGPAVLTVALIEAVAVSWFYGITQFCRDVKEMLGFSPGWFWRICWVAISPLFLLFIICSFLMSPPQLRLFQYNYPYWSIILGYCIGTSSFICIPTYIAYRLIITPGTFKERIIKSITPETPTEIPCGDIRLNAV
CYP450 2C9, sequence (P11712 whole entry): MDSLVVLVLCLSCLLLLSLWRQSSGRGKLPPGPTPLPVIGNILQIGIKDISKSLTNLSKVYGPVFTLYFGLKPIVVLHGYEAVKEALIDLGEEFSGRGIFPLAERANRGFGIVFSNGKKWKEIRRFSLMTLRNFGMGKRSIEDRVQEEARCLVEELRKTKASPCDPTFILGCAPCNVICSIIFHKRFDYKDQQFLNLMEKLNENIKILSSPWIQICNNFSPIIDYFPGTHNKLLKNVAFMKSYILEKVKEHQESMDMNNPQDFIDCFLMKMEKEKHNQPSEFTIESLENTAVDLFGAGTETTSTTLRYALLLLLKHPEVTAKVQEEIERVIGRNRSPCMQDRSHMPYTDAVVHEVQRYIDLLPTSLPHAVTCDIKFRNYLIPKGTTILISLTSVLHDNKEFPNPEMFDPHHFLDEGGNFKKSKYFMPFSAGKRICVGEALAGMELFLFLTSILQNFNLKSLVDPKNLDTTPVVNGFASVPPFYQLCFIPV
CYP450 1A2, sequence (P05177 whole entry): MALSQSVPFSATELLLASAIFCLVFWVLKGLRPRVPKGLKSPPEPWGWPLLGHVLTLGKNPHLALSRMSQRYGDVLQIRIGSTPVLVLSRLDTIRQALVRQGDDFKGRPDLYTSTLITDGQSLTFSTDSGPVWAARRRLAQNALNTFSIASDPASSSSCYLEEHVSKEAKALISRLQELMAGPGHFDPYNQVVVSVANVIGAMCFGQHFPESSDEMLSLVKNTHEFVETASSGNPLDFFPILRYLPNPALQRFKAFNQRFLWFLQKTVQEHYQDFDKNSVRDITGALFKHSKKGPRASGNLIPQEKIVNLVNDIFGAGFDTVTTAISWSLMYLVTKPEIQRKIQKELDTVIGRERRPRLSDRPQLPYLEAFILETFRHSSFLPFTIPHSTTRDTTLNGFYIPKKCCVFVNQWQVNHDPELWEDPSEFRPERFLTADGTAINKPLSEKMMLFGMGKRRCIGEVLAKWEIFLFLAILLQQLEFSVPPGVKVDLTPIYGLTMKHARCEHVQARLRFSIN
T1 sequence (P31652 whole entry): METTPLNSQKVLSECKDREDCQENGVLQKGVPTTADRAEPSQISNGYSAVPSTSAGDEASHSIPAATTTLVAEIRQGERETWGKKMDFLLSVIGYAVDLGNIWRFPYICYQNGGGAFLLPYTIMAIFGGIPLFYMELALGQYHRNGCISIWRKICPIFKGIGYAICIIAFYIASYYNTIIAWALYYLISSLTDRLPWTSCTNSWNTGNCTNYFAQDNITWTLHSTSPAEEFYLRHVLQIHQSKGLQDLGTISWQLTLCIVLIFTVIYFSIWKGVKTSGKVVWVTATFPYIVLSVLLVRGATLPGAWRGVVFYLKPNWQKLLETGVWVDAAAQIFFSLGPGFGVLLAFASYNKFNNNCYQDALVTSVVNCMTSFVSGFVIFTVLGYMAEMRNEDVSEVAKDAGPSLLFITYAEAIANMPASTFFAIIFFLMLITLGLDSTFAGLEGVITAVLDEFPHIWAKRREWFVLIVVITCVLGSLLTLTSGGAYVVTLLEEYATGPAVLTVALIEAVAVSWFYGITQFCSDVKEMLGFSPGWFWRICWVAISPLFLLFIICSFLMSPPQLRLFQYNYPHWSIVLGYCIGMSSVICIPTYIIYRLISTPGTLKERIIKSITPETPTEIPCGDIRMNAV

## c1ccc2cc([C@H]([C@H]3CCCNC3)n3ncnn3)ccc2c1 [Example Compound 2, (3S)-3-[(S)-naphthalen-2-yl(2H-tetrazol-2-yl)methyl]piperidine]
[1]
  IC50: 20 nM
Serotonin transporter
  IC50: 37 nM
Dopamine transporter
  IC50: 74 nM
[2]
  effect on synaptic levels of serotonin, norepinephrine, and dopamine: clear effects on all three monoamines
[3]; oral 15, 30, 40, 60, or 80 mg/kg, p<0.001
  binge operant responding for alcohol: significantly reduced
[3]; oral, p>0.05, except for the 80 mg/kg dose
  binge sucrose responding: failed to significantly reduce
5-HT2B
  activity at 5-HT2B receptor: antagonist activity
[4]
  metabolic stability: high
PK parameters in monkey
  half-life: 5.8 h
PK parameters in monkey; po, monkeys
  bioavailability: 10%
CYP450 1A2
  inhibition of CYP450 1A2: does not inhibit
CYP450 2C8
  inhibition of CYP450 2C8: does not inhibit
CYP450 2C9
  inhibition of CYP450 2C9: does not inhibit
CYP450 2D6
  inhibition of CYP450 2D6: does inhibit
CYP 1A2
  induction of CYP 1A2: does not induce
CYP 2B6
  induction of CYP 2B6: does not induce
CYP 3A4
  induction of CYP 3A4: does not induce
AMES
  genotoxicity, AMES: negative
[5]
  NOAEL at 13 week: 6 mg/kg
Rats [6]
  Irwin test for neurotoxicity: negative
Rats [7]
  respiratory testing: negative
[8]; read-out: NOAEL fetal development
  NOAEL: 90 mg/kg/day
[8]; read-out: NOAEL fetal growth
  NOAEL: 30 mg/kg/day
[8]; read-out: NOAEL fetal viability
  NOAEL: 90 mg/kg/day
[8]; read-out: NOAEL maternal toxicity
  NOAEL: 30 mg/kg/day
[9]
  protein binding: modest
  stability: stable
[10]
  half-life: ~6 h
Healthy volunteers
  effects on vital signs or on QTc: no effects
  primary adverse events: nausea, vomiting and headache
Healthy volunteers; across all doses
  plasma concentration versus dose: proportional to dose
[11]
  half-life: ~7 h
micronucleus
  genotoxicity, micronucleus: negative
humans
  positive subjective effects in humans: does not produce positive subjective effects
Mouse lymphoma
  genotoxicity, mouse lymphoma chromosome aberration: negative
